“Also recorded” adds a separate entry of the source. Counter-ions that a name gives are not always drawn. Ends that are not written are not given here.
Legend:
[1] = intracavernosal, cited from earlier work; for Results of i.c. injection in erectile dysfunction: either alone or in combination
[2] = Solubility of the citrate salt in water; format: physicochemical
[3] = sublingual, cited from earlier work
[4] = Peak plasma concentration time / response in humans, current oral tablet formulation vs intranasal route; format: in vivo; conditions: indicated by rat results
[5] = Absorption of solubilized sildenafil from the nasal cavity of rats (blood concentration after intranasal vs intravenous administration); format: in vivo; conditions: for Concentration of sildenafil in the blood of rats, intranasal, mean: n = 5; for Concentration of sildenafil in the blood of rats, intravenous, mean: n = 3
Procedure: These experiments determine the bioavailability of sildenafil, or derivatives thereof, after nasal administration and compare it to that after intravenous administration. In particular, the present experiment determined the absorption of sildenafil into the blood of rats following intranasal administration of a formulation in which the sildenafil was solubilized by the addition of mesylic acid (see below).
The nasal absorption of sildenafil, or derivatives thereof, were measured using an in vivo technique in rats. Rats were fasted overnight prior to experimentation. Surgical procedures were performed under equithesin anesthesia (3 ml/kg, i.p.). An incision was made in the neck of each rat, and the trachea cannulated with polyethylene tubing (PF-260). A closed end tube was inserted through the esophagus to the posterior part of the nasal cavity to prevent drug from entering the esophagus. The nasopalatine passage was closed with an adhesive agent to prevent drainage of the drug from the nasal cavity to the mouth.
The jugular vein and femoral artery were cannulated with polyethylene tubing for intravenous drug administration and intra-arterial blood sampling.
Solutions of sildenafil hydrochloride (2 and 4 mg/rat/50 μl) were prepared in water and administered through the right nostril using a microsyringe. For intravenous administration, the same dose of the drug was injected into the jugular vein (1 ml/kg body weight). […]
Bioavailability of nasally administered drug was calculated by comparing the plasma drug concentrations between nasal and intravenous delivery routes and expressed as a percentage of the intravenous bioavailability.
The solution instilled into the nasal cavities of the rats in this experiment had the following composition:
Adjust the pH to 2.8 to 3.0 with 0.05M NaOH
At various times following the intranasal and intravenous administration of sildenafil to rats, the concentrations of sildenafil in blood were determined using the following analytical method:
One hundred microliters of rat plasma was treated with 25 microliters of 1M monochloroacetic acid to denature the plasma proteins and release free sildenafil. Seventy-five microliters of acetonitrile was then added to precipitate the proteins. This solution was centifuged for 5 minutes at 5,000 g. The clear supernatant was injected onto the HPLC column.
The HPLC system consisted of the following:
The concentrations are expressed as areas under the HPLC curves×10^-4.

[6] = currently used oral route; cited from earlier work
[7] = cited from earlier work

## CC(COc1ccccc1)N(CCCl)Cc1ccccc1 (stereo not drawn) [phenoxybenzamine]
[1]
  Results of i.c. injection in erectile dysfunction: good results

## CCCc1nn(C)c2c(=O)[nH]c(-c3cc(S(=O)(=O)N4CCN(C)CC4)ccc3OCC)nc12 [sildenafil citrate]
[2]
  solubility: 3.5 mg/mL

## vasoactive intestinal polypeptide (VIP): vasoactive intestinal polypeptide (HSDAVFTDNYTRLRKQMAVKKYLNSILN; ends and bridges not checked; UniProt P01282 125-152, looked up)
[1]
  Activity i.c.: active i.c.

## CN1CCc2cccc3c2[C@H]1Cc1ccc(O)c(O)c1-3 [apomorphine]
[3]
  Effect on erectile function: restore normal erectile function
[3]; men whose dysfunction had psychological origins
  Men returned to sexual potency: about 70%

## CCCc1nn(C)c2c(=O)[nH]c(-c3cc(S(=O)(=O)N4CCN(C)CC4)ccc3OCC)nc12 [Sildenafil, 5-[2-ethoxy-5-(4-methyl-1-piperazinylsulphonyl)-phenyl]-1-methyl-3-n-propyl-1,6-dihydro-7H-pyrazolo[4,3-d]pyrimidin-7-one]
[4]
  Response in humans, intranasal route vs current oral tablet: much more rapid response
[5]; intranasal vs intravenous
  Effectiveness of intranasal compared with intravenous administration: as effective as intravenous administration
[5]; intranasal, comparison of areas under blood concentration versus time curves with intravenous (FIG. 1)
  Absorption following intranasal administration: complete and very rapid absorption; also recorded: rapidly and complete absorbed
[5]; intranasal
  Concentration of sildenafil in the blood of rats, intranasal, mean: 11.7 areas under the HPLC curves×10
[5]; intranasal, time 2 min
  Concentration of sildenafil in the blood of rats, intranasal, mean: 12.1 areas under the HPLC curves×10
[5]; intranasal, time 5 min
  Concentration of sildenafil in the blood of rats, intranasal, mean: 25.5 areas under the HPLC curves×10
[5]; intranasal, time 10 min
  Concentration of sildenafil in the blood of rats, intranasal, mean: 38.2 areas under the HPLC curves×10
[5]; intranasal, time 15 min
  Concentration of sildenafil in the blood of rats, intranasal, mean: 43.5 areas under the HPLC curves×10
[5]; intranasal, time 20 min
  Concentration of sildenafil in the blood of rats, intranasal, mean: 32.6 areas under the HPLC curves×10
[5]; intranasal, time 30 min
  Concentration of sildenafil in the blood of rats, intranasal, mean: 31.0 areas under the HPLC curves×10
[5]; intranasal, time 40 min
  Concentration of sildenafil in the blood of rats, intranasal, mean: 22.7 areas under the HPLC curves×10
[5]; intranasal, time 50 min
  Concentration of sildenafil in the blood of rats, intranasal, mean: 19.6 areas under the HPLC curves×10
[5]; time 0 min
  Concentration of sildenafil in the blood of rats, intravenous, mean: 188.8 areas under the HPLC curves×10
[5]; time 2 min
  Concentration of sildenafil in the blood of rats, intravenous, mean: 84.7 areas under the HPLC curves×10
[5]; time 5 min
  Concentration of sildenafil in the blood of rats, intravenous, mean: 47.7 areas under the HPLC curves×10
[5]; time 10 min
  Concentration of sildenafil in the blood of rats, intravenous, mean: 32.0 areas under the HPLC curves×10
[5]; time 15 min
  Concentration of sildenafil in the blood of rats, intravenous, mean: 19.5 areas under the HPLC curves×10
[5]; time 20 min
  Concentration of sildenafil in the blood of rats, intravenous, mean: 17.9 areas under the HPLC curves×10
[5]; time 30 min
  Concentration of sildenafil in the blood of rats, intravenous, mean: 16.0 areas under the HPLC curves×10
[5]; time 40 min
  Concentration of sildenafil in the blood of rats, intravenous, mean: 14.6 areas under the HPLC curves×10
[5]; time 50 min
  Concentration of sildenafil in the blood of rats, intravenous, mean: 7.6 areas under the HPLC curves×10
[5]; rat, in vivo, rats, intranasal, approximately, read-out: Time of peak blood concentration
  Tmax: 10 to 15 min
[6]
  Time to response, oral route: ≥ 60 min

## COc1ccc(Cc2nccc3cc(OC)c(OC)cc23)cc1OC [papaverine]
[1]
  Results of i.c. injection in erectile dysfunction: good results

## O=[N+]([O-])OCC(CO[N+](=O)[O-])O[N+](=O)[O-] [glyceryl trinitrate (GTN), glyceryl trinitrate]
[7]
  Effect of patches applied to the penis: effective
  Side-effects of patches applied to the penis: produces side-effects in both patient and partner

## Cc1ccc(N(CC2=NCCN2)c2cccc(O)c2)cc1 [phentolamine]
[1]
  Results of i.c. injection in erectile dysfunction: good results

## CCCCC[C@H](O)/C=C/[C@H]1[C@H](O)CC(=O)[C@@H]1CCCCCCC(=O)O [PGE-1]
[1]
  Results of i.c. injection in erectile dysfunction: good results
